Assay results reported in patent US20200129597A1, “MODULATION OF FACTOR Xa INHIBITOR-MEDIATED BLOOD LOSS BY PARTIAL AND TRANSIENT ADMINISTRATION OF ANTIDOTE” (Portola Pharmaceuticals, Inc., priority 2012, published 2020).
Values joined by “and” are separate entries in the source; they are usually repeats but may differ in a detail not shown here. Equal values may be shown once. Each block holds one compound with its values, some of them ahead of it.

Key:
[1] = Total and unbound fXa inhibitor plasma concentration in rats; type: in vivo, rat; conditions: for fraction unbound: intravenous
Experimental: Total rivaroxaban plasma concentration at different time points from FIG. 10A was determined by LC-MS (solid line).
Similar experiments were carried out using betrixaban and apixaban infusion into anesthetized rats (FIG. 10B and FIG. 10C).
Blood sampling catheter patency was maintained by slow infusion of normal saline. Serial blood samples were obtained during the experimental time course. Total fXa inhibitor concentration was measured by HPLC with tandem mass spectrometry.

[2] = system: blood loss; experiment: Mouse tail transection blood loss model; type: in vivo; conditions: for blood loss: 15 min, mean±SD, rivaroxaban 50 mg/kg oral, ASA ~100 mg/kg/day 5 days, treatment as labelled
Experimental: Mice (n=5-8/group) were first dosed orally with vehicle or aspirin at ˜100 mg/kg/day for 5 days. Rivaroxaban (50 mg/kg) or vehicle (5 mL/kg) was then dosed orally.
For the mouse tail transection blood loss model, mice (male, C57BL/6, Charles River) were first treated with aspirin at ˜100 mg/kg/day for 5 days via drinking water.

[3] = system: blood loss; experiment: Rat tail transection treatment model, r-Antidote given after bleeding initiated; type: in vivo; conditions: enoxaparin-treated group
Experimental: In a pilot study using this antidote treatment model, anesthetized rats were intravenously (IV) administered either vehicle or enoxaparin (4.5 mg/kg, IV bolus) followed by tail transection at 5 min post-dosing.
Anesthetized rats were administered enoxaparin (4.5 mg/kg) or vehicle by I.V. bolus injection followed by tail transection (2 mm from tip) 5 minutes later. […] The tip of the tail was placed in physiologic saline at 37° C. and blood collected for an additional 45 minutes after tail transection. Blood was lysed by diluting in water and freezing at −80° C. overnight. […] Anti-fXa activity of enoxaparin was measured using a modified chromogenic LMW heparin kit. Tissue factor (TF)-initiated thrombin generation was carried out in human plasma using a fluorogenic thrombin substrate by measurement of change of relative fluorescence unit (RFU) for 10 min following initiation of the reaction.

[4] = Total rivaroxaban concentration in mouse plasma; conditions: following r-Antidote administration (Treat-V)
[5] = system: activated partial thromboplastin time (aPTT); experiment: Activated partial thromboplastin time in rabbit liver laceration model; type: in vivo; conditions: for prolongation of aPTT: rivaroxaban 1 mg/kg, 30 min time point
Experimental: (§1) Anesthetized rabbits were administered vehicle or 1 mg/kg rivaroxaban via IV bolus injection. […] Total rivaroxaban concentration in plasma was measured by LC-MS/MS. […] Anti-fXa activity was measured using a modified chromogenic LMW heparin kit. PT and aPTT was measured using commercial reagents (HemosIL).
(§2) For human in vitro and rat ex vivo experiments, PT was measured using MLA Electra 800 automatic coagulation timer. Innovin was automatically dispensed to plasma samples (100 μL) per manufacturer's instructions. […] For rabbit experiments, PT and aPTT were measured using a Beckman Coulter ACL Elite instrument with HemosIL reagents (available commercially from Instrumentation Laboratories). Whole blood INR (International Normalized Ratio) for animal samples were measured by Hemchron Jr. Signature Cartridges (International Technidyne Corporation) according to manufacturer's instructions.
(§3) Rivaroxaban (1 mg/kg) or vehicle was dosed to anesthetized rabbits by IV bolus over 2 minutes via marginal ear vein catheter. […] Serial blood samples were collected at 0, 30, 35, and 50 minutes post rivaroxaban. Measurements included reduction in blood loss, decrease in unbound rivaroxaban in the plasma using equilibrium dialysis method, anti-fXa activity, PT and aPTT. The method for measuring PT is described previously in Example 6.

[6] = system: blood loss; experiment: Rabbit liver laceration blood loss model; type: in vivo; conditions: for increase in blood loss compared with vehicle: rivaroxaban 1 mg/kg IV bolus
Experimental: Rivaroxaban (1 mg/kg) or vehicle was dosed by IV bolus over 2 minutes via marginal ear vein catheter. […] Riva=Rivaroxaban; g=gram
as §1
Anesthetized rabbits were administered vehicle or 1 mg/kg rivaroxaban via IV bolus injection. […] As in the rodent model, total and free rivaroxaban concentration in plasma, anti-fXa activity and PT and activated partial thromboplastin times (aPTT) was measured.
as §3

[7] = Total and free rivaroxaban concentration in rabbit plasma; type: in vivo; conditions: for concentration at 30 min: male, NZW, rabbit, plasma
Experimental: as §1, §3

[8] = system: prothrombin time (PT); experiment: Prothrombin time in rabbit liver laceration model; type: in vivo; conditions: for prolongation of PT: rivaroxaban 1 mg/kg, 30 min time point
Experimental: as §1, §2, §3

[9] = system: prothrombin time (PT); experiment: Prothrombin time in human plasma in vitro; type: biochemical; conditions: rivaroxaban 1 μM
Experimental: as §2

[10] = system: blood loss; experiment: Rat tail transection model, r-Antidote bolus plus infusion after enoxaparin or fondaparinux; type: in vivo; conditions: fondaparinux 25 mg/kg; protamine 0.9 mg/rat IV bolus; p=0.39
Experimental: Enoxaparin (4.5 mg/kg) or vehicle was dosed by IV bolus over 5 min, followed by treatment with vehicle or two different doses of r-Antidotc (2 mg/rat bolus plus 2 mg/hr infusion and 4 mg/rat bolus plus 4 mg/hr infusion) starting at 10 min. […] Protamine was dosed as an IV bolus only (0.9 mg/rat). […] Anti-fXa activity was normalized to the activity of Treat-II at 5 min time point. *** P-value (Treat-III vs. Treat-II)≤0.0001.
The collected blood samples were processed by freezing the samples at −80° C. to lyse erythrocytes. Hemoglobin concentration and corresponding blood volume were quantified spectrophotometrically (Absorbance at 490 nm) from a standard curve constructed with known volumes of blood.

[11] = Phase 2 trial: anti-fXa activity (chromogenic assay) after apixaban and r-Antidote; type: in vivo, human; conditions: apixaban 5 mg bid (11 doses)
Source text: (§4) Pharmacodynamic and safety data are collected through Day 48 and PK through Day 10. A chromogenic assay was used to determine anti-fXa activity.

[12] = Phase 2 trial: plasma concentrations; conditions: apixaban 5 mg bid
Source text: as §4

[13] = upon administration of r-Antidote
[14] = 30 minutes post rivaroxaban (before treatment)

- fraction unbound ([1]; male, SD, rat, plasma): 0.003
- concentration at 30 min ([1]; male, SD, rat, plasma, iv): 200 nM
- fraction unbound at 30 min ([1]; male, SD, rat, plasma, iv): 0.41
- concentration at 30 min [1, 13]: 2000 nM
Compound: COc1ccc(NC(=O)c2ccc(C(=N)N(C)C)cc2)c(C(=O)Nc2ccc(Cl)cn2)c1 [betrixaban]

Compound: CC(=O)Oc1ccccc1C(=O)O [aspirin]
- blood loss [2]: 118 ± 71 µL

Compound: enoxaparin
- share of blood loss occurring within first 10 min prior to treatment [3]: ~26%
- total blood loss as share of animal's total blood volume [3]: about 5%

- increase of total rivaroxaban concentration in plasma [4]: 7.8 fold
- concentration at 30 min ([1]; male, SD, rat, plasma, iv): 1400 nM
- fraction unbound at 30 min ([1]; male, SD, rat, plasma, iv): 0.022
- concentration at 30 min [1, 13]: 1900 nM
- free (non-protein bound) fraction of rivaroxaban in plasma ([7]; after r-Antidote 75 mg/rabbit): < 0.5%
- free (non-protein bound) fraction of rivaroxaban in plasma ([7]; before r-Antidote): 26%
- concentration at 30 min ([7]; intravenous, 1 mg/kg, just prior to treatment, dose group as labelled): 1200 nM
- concentration at 30 min ([7]; 30 min time point, 1 mg/kg IV): 1650 nM
Compound: O=C(NC[C@H]1CN(c2ccc(N3CCOCC3=O)cc2)C(=O)O1)c1ccc(Cl)s1 [rivaroxaban]
- blood loss [2]: 216 ± 222 µL
- increase in blood loss ([2]; ASA-treated mice (~100 mg/kg/day, 5 days), single oral Riva 50 mg/kg, Riva+ASA vs. ASA): 3.4 fold
- Activated Partial Thromboplastin Times ([5]; 0 minutes post rivaroxaban): 28 ± 5 s
- Activated Partial Thromboplastin Times [5, 14]: 49 ± 8 s
- Activated Partial Thromboplastin Times ([5]; 35 minutes post rivaroxaban): 48 ± 8 s
- Activated Partial Thromboplastin Times ([5]; 50 minutes post rivaroxaban): 48 ± 8 s
- prolongation of aPTT [5]: 1.9 fold and 1.8 fold
- prolongation of aPTT ([5]; listed as Rivaroxaban): 1.9 fold
- blood loss due to rivaroxaban anticoagulation as share of total blood volume ([6]; rivaroxaban 1 mg/kg): approximately 10%
- increase in blood loss compared with vehicle [6]: 3.2 fold and > 3 fold
- increase in blood loss compared with vehicle ([6]; listed as Rivaroxaban): 3.2 fold
- blood loss ([6]; rivaroxaban group, 15 min collection): 22.7±9.3 grams
- Prothrombin Times ([8]; 0 minutes post rivaroxaban): 6.2 ± 0.4 s
- Prothrombin Times [8, 14]: 15.8 ± 1.5 s
- Prothrombin Times ([8]; 35 minutes post rivaroxaban): 15.0 ± 1.6 s
- Prothrombin Times ([8]; 50 minutes post rivaroxaban): 13.8 ± 1.3 s
- prolongation of PT [8]: 2.3 fold and 2.5 fold
- prolongation of PT ([8]; listed as Rivaroxaban): 2.3 fold
- effect on prothrombin time [9]: prolongation of prothrombin time

Compound: Protamine
- effect on fondaparinux anticoagulation [10]: no statistically significant effect

Compound: COc1ccc(-n2nc(C(N)=O)c3c2C(=O)N(c2ccc(N4CCCCC4=O)cc2)CC3)cc1 [apixaban]
- fraction unbound ([1]; male, SD, rat, plasma): 0.0005
- concentration at 30 min ([1]; male, SD, rat, plasma, iv): 1400 nM
- fraction unbound at 30 min ([1]; male, SD, rat, plasma, iv): 0.015
- concentration at 30 min [1, 13]: 4200 nM
- time of peak anti-fXa activity post last apixaban dose [11]: 3 h
- mean apixaban plasma concentration [12]: 474 nM
